Source: the supplement of paper PMC5412046
Counter-ions that a name gives are not always drawn.

Legend:
[1] = system: SB.mhdgc-1; test: AC50 for growth inhibition (viability) (log10 M); higher = less potent; conditions: SB.mhdgc-1 (hereditary c.1380delA CDH1 gastric cancer)
In short: (§1)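 Values are log half-maximal activity concentrations from four-parameter fits of DMSO-normalised viability, restricted to high-quality curve classes. Patient-derived gastric cancer cells, hereditary or sporadic, were plated at 500 cells per 1536 well in 5 μL medium and given 23 nL compound in DMSO by pintool across 11 threefold dilutions, the top final concentration being 46 μM. Viability was read by ViewLux luminescence after 48 h and a 30 min CellTiter-Glo step at room temperature.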

[2] = system: SB.msgc-1; test: as above; conditions: SB.msgc-1 (sporadic gastric cancer)
In short: as §1

CN(C)c1ccc(C(=O)NCCCCCCC(=O)NO)cc1 [M344]
AC50 for growth inhibition (log10 M) [1]: -5.83 | AC50 for growth inhibition (log10 M) [2]: -6.08

CCC[C@@H](C=O)NC(=O)[C@H](CC(C)C)NC(=O)[C@H](CC(C)C)NC(=O)OCc1ccccc1 [MG-115]
AC50 for growth inhibition (log10 M) [1]: -5.98 | AC50 for growth inhibition (log10 M) [2]: -5.88

CC(C)C[C@@H](C=O)NC(=O)[C@H](CC(C)C)NC(=O)[C@H](CC(C)C)NC(=O)OCc1ccccc1 [MG-132]
AC50 for growth inhibition (log10 M) [1]: -6.33 | AC50 for growth inhibition (log10 M) [2]: -6.08

COCCOc1nc(-c2ccc(Cl)c(Cl)c2)n(-c2ccc(NC(=O)CCl)cc2)n1 [MI-2]
AC50 for growth inhibition (log10 M) [1]: -4.73 | AC50 for growth inhibition (log10 M) [2]: -5.08

NC1(c2ccc(-c3nc4ccn5c(=O)[nH]nc5c4cc3-c3ccccc3)cc2)CCC1 [MK-2206]
AC50 for growth inhibition (log10 M) [1]: -6.13 | AC50 for growth inhibition (log10 M) [2]: -4.68

COC1=CC=C(C=C1)C2CC(=N/N2C3=CC=C(C=C3)[S+](N)([O-])=O)\C4=CC=CC=C4 (stereo unspecified) [ML 141]
AC50 for growth inhibition (log10 M) [1]: -4.68 | AC50 for growth inhibition (log10 M) [2]: -4.73

COc1c(Cl)cc2c([nH]c3cnccc32)c1NC(=O)c1cccnc1C [MLN-120B]
AC50 for growth inhibition (log10 M) [1]: -5.83 | AC50 for growth inhibition (log10 M) [2]: -5.23

CNCCCC12CCC(c3ccccc31)c1ccccc12 [Maprotiline hydrochloride]
AC50 for growth inhibition (log10 M) [1]: -4.78 | AC50 for growth inhibition (log10 M) [2]: -4.63

Cc1nnc(C(C)C)n1[C@@H]1C[C@H]2CC[C@@H](C1)N2CC[C@H](NC(=O)C1CCC(F)(F)CC1)c1ccccc1 [Maraviroc]
AC50 for growth inhibition (log10 M) [1]: -5.18 | AC50 for growth inhibition (log10 M) [2]: -4.78

C[C@@]12OC(=O)[C@@]1(NC(=O)[C@@H]2CCCl)[C@@H](O)[C@H]\3CCC\C=C3 [Marizomib]
AC50 for growth inhibition (log10 M) [1]: -7.68 | AC50 for growth inhibition (log10 M) [2]: -7.48

C[C@H]1C[C@@H]2[C@H](CC[C@@]3(C)[C@H]2CC[C@]3(OC(C)=O)C(C)=O)[C@@]\4(C)CCC(=O)\C=C14 [Medroxyprogesterone acetate]
AC50 for growth inhibition (log10 M) [1]: -5.23 | AC50 for growth inhibition (log10 M) [2]: -4.83

COc1ccc2[nH]cc(CCNC(C)=O)c2c1 [Melatonin]
AC50 for growth inhibition (log10 M) [1]: -5.33 | AC50 for growth inhibition (log10 M) [2]: -5.83

N[C@@H](Cc1ccc(N(CCCl)CCCl)cc1)C(=O)O [Melphalan]
AC50 for growth inhibition (log10 M) [1]: -6.08 | AC50 for growth inhibition (log10 M) [2]: -5.83

CC12CC3CC(C)(C1)CC(N)(C3)C2 [Memantine hydrochloride]
AC50 for growth inhibition (log10 M) [1]: -4.73 | AC50 for growth inhibition (log10 M) [2]: -4.83

CCN(CC)CCNC(=O)c1ccc2nc(-c3ccccc3)c(-c3ccc(CN4CCC(n5c(=O)[nH]c6ccccc65)CC4)cc3)nc2c1 [Merck-22-6]
AC50 for growth inhibition (log10 M) [1]: -5.63 | AC50 for growth inhibition (log10 M) [2]: -4.88

CN(Cc1cnc2nc(N)nc(N)c2n1)c1ccc(C(=O)N[C@@H](CCC(=O)O)C(=O)O)cc1 [Methotrexate]
AC50 for growth inhibition (log10 M) [1]: -6.68 | AC50 for growth inhibition (log10 M) [2]: -7.48

CN(C)c1ccc2nc3ccc(N(C)C)cc3[s+]c2c1 [Methylene blue]
AC50 for growth inhibition (log10 M) [1]: -5.83 | AC50 for growth inhibition (log10 M) [2]: -5.33

CN(C)C1=CC=C(C=C1)C(C2=CC=C(C=C2)N(C)C)=C/3\C=C/C(/C=C3)=[N+](C)C [Methylrosaniline chloride]
AC50 for growth inhibition (log10 M) [1]: -6.03 | AC50 for growth inhibition (log10 M) [2]: -5.78

CO[C@@H]1[C@H](N(C)C(=O)c2ccccc2)C[C@H]2O[C@]1(C)n1c3ccccc3c3c4c(c5c6ccccc6n2c5c31)C(=O)NC4 [Midostaurin]
AC50 for growth inhibition (log10 M) [1]: -5.63 | AC50 for growth inhibition (log10 M) [2]: -5.38

CC#C[C@]1(O)CC[C@H]2[C@@H]/3CCC/4=C/C(=O)CCC4=C3[C@H](C[C@]12C)C5=CC=C(C=C5)N(C)C [Mifepristone]
AC50 for growth inhibition (log10 M) [1]: -7.23 | AC50 for growth inhibition (log10 M) [2]: -6.63

CNC(=O)c1nn(C)c2c1C(C)(C)Cc1cnc(Nc3ccc(N4CCN(C)CC4)cc3)nc1-2 [Milciclib]
AC50 for growth inhibition (log10 M) [1]: -5.93 | AC50 for growth inhibition (log10 M) [2]: -5.88

CN(C)c1ccc(O)c2c1C[C@H]1C[C@H]3[C@H](N(C)C)C(O)=C(C(N)=O)C(=O)[C@@]3(O)C(O)=C1C2=O [Minocycline]
AC50 for growth inhibition (log10 M) [1]: -5.43 | AC50 for growth inhibition (log10 M) [2]: -5.38

Clc1ccc(C(c2ccccc2Cl)C(Cl)Cl)cc1 (stereo unspecified) [Mitotane]
AC50 for growth inhibition (log10 M) [1]: -4.88 | AC50 for growth inhibition (log10 M) [2]: -4.73

O=C1c2c(O)ccc(O)c2C(=O)c2c(NCCNCCO)ccc(NCCNCCO)c21 [Mitoxantrone]
AC50 for growth inhibition (log10 M) [1]: -7.13 | AC50 for growth inhibition (log10 M) [2]: -5.88

C[C@@H]1C[C@H]2[C@@H]3CC\C4=C\C(=O)\C=C/[C@]4(C)[C@@]3(Cl)[C@@H](O)C[C@]2(C)[C@@]1(OC(=O)C5=CC=CO5)C(=O)CCl [Mometasone furoate]
AC50 for growth inhibition (log10 M) [1]: -4.83 | AC50 for growth inhibition (log10 M) [2]: -5.03

CCOC(=O)C/1=C(C)/NC(=S)NC1C2=CC=CC(=C2)O (stereo unspecified) [Monastrol]
AC50 for growth inhibition (log10 M) [1]: -7.38 | AC50 for growth inhibition (log10 M) [2]: -7.38

CC[C@@]1([C@@H]2O[C@@H]([C@H]3O[C@@](O)(CO)[C@H](C)C[C@@H]3C)C[C@@H]2C)CC[C@H]([C@]2(C)CC[C@]3(C[C@H](O)[C@@H](C)[C@@H]([C@@H](C)[C@@H](OC)[C@H](C)C(=O)[O-])O3)O2)O1 [Monensin sodium salt]
AC50 for growth inhibition (log10 M) [1]: -6.99 | AC50 for growth inhibition (log10 M) [2]: -6.94

CC1(C)CNc2cc(NC(=O)c3cccnc3NCc3ccncc3)ccc21 [Motesanib]
AC50 for growth inhibition (log10 M) [1]: -7.23 | AC50 for growth inhibition (log10 M) [2]: -5.98

FC(F)(F)c1ccc(/C=C/c2nc(COc3ccc(CCCCn4ccnn4)cc3)co2)cc1 [Mubritinib]
AC50 for growth inhibition (log10 M) [1]: -6.78 | AC50 for growth inhibition (log10 M) [2]: -7.83

COc1c(C)c2c(c(O)c1C/C=C(\C)CCC(=O)OCCN1CCOCC1)C(=O)OC2 [Mycophenolate mofetil]
AC50 for growth inhibition (log10 M) [1]: -5.88 | AC50 for growth inhibition (log10 M) [2]: -5.03

COc1c(C)c2c(c(O)c1C/C=C(\C)CCC(=O)O)C(=O)OC2 [Mycophenolic acid]
AC50 for growth inhibition (log10 M) [1]: -5.48 | AC50 for growth inhibition (log10 M) [2]: -5.93

COc1ccc(Nc2cc(-c3cnc(N)nc3)nc(N3CCOCC3)n2)cn1 [NIBR-17]
AC50 for growth inhibition (log10 M) [1]: -6.48 | AC50 for growth inhibition (log10 M) [2]: -5.18

Nc1nc(N)c(N=O)c(OCC2CCCCC2)n1 [NU-6027]
AC50 for growth inhibition (log10 M) [1]: -5.33 | AC50 for growth inhibition (log10 M) [2]: -4.73

N[S+](=O)([O-])c1ccc(Nc2nc(OCC3CCCCC3)c3[nH]cnc3n2)cc1 [NU-6102]
AC50 for growth inhibition (log10 M) [1]: -4.68 | AC50 for growth inhibition (log10 M) [2]: -4.83

O=C1\C=C(OC2=C(C=CC=C12)C3=CC=CC4=C3SC5=C4C=CC=C5)\N6CCOCC6 [NU-7441]
AC50 for growth inhibition (log10 M) [1]: -4.68 | AC50 for growth inhibition (log10 M) [2]: -4.78

CNCC(O)C(O)C(O)C(O)CO.O=C(O)c1ccc(-c2cc3cccnc3c(-c3ccc4nonc4c3)n2)cc1 [NVP-ABE171]
AC50 for growth inhibition (log10 M) [1]: -4.58 | AC50 for growth inhibition (log10 M) [2]: -4.63

COc1ccc(-c2ccc3ncc4c(c3c2)n(-c2ccc(N3CCNCC3)c(C(F)(F)F)c2)c(=O)n4C)cn1 [NVP-BGT226]
AC50 for growth inhibition (log10 M) [1]: -6.58 | AC50 for growth inhibition (log10 M) [2]: -5.58

Cc1ccc(C(=O)Nc2cccc(C(F)(F)F)c2)cc1Nc1nc(-c2cccnc2)nc2c1cnn2C [NVP-BHG712]
AC50 for growth inhibition (log10 M) [1]: -4.83 | AC50 for growth inhibition (log10 M) [2]: -4.78

Fc1cc(-c2cccc3ncc(-c4cnn(C5CCNCC5)c4)nc23)cc(F)c1CN1CCOCC1 [NVP-BSK805]
AC50 for growth inhibition (log10 M) [1]: -5.03 | AC50 for growth inhibition (log10 M) [2]: -4.68

CO[C@H]1CCC(O[C@H]2C[C@H]([C@]3(C)CC[C@]4(C[C@H](O)[C@@H](C)[C@@H]([C@@H](C)/C=C(\C)C(=O)[C@H](C)C[C@H](C)C(=O)[O][Na])O4)O3)O[C@]3(O[C@@H]([C@H]4O[C@@](O)(CO)[C@H](C)C[C@@H]4C)C[C@@H]3C)[C@@H]2C)O[C@@H]1C (stereo partly specified) [Nanchangmycin]
AC50 for growth inhibition (log10 M) [1]: -6.83 | AC50 for growth inhibition (log10 M) [2]: -6.68

CN[S+](=O)([O-])CCc1ccc2[nH]cc(C3CCN(C)CC3)c2c1 [Naratriptan hydrochloride]
AC50 for growth inhibition (log10 M) [1]: -7.08 | AC50 for growth inhibition (log10 M) [2]: -6.83

CC1(C)CCC(=C(CN2CCN(CC2)C3=CC=C(C=C3)C(=O)N[S+]([O-])(=O)C4=CC(=C(N[C@H](CCN5CCOCC5)CSC6=CC=CC=C6)C=C4)[S+]([O-])(=O)C(F)(F)F)\C1)/C7=CC=C(Cl)C=C7 [Navitoclax]
AC50 for growth inhibition (log10 M) [1]: -6.13 | AC50 for growth inhibition (log10 M) [2]: -5.13

COc1ccc(CCC(=O)c2c(O)cc(O[C@@H]3O[C@H](CO)[C@@H](O)[C@H](O)[C@H]3O[C@@H]3O[C@@H](C)[C@H](O)[C@@H](O)[C@H]3O)cc2O)cc1O [Neohesperidin dihydrochalcone]
AC50 for growth inhibition (log10 M) [1]: -5.28 | AC50 for growth inhibition (log10 M) [2]: -5.18

NCC/1=C/NC(=S)N1[C@H]2CCC3=C(F)C=C(F)C=C3C2 [Nepicastat hydrochloride]
AC50 for growth inhibition (log10 M) [1]: -4.98 | AC50 for growth inhibition (log10 M) [2]: -5.03

O=C(Nc1ccc([N+](=O)[O-])cc1Cl)c1cc(Cl)ccc1O [Niclosamide]
AC50 for growth inhibition (log10 M) [1]: -5.88 | AC50 for growth inhibition (log10 M) [2]: -5.38

Cc1cn(-c2cc(NC(=O)c3ccc(C)c(Nc4nccc(-c5cccnc5)n4)c3)cc(C(F)(F)F)c2)cn1 [Nilotinib]
AC50 for growth inhibition (log10 M) [1]: -5.18 | AC50 for growth inhibition (log10 M) [2]: -4.83

CC(=O)Oc1ccccc1C(=O)Nc1ncc([N+](=O)[O-])s1 [Nitazoxanide]
AC50 for growth inhibition (log10 M) [1]: -4.72 | AC50 for growth inhibition (log10 M) [2]: -4.72

COc1ccc2c(c1OC)C(=O)O[C@H]2[C@H]1c2c(cc3c(c2OC)OCO3)CCN1C [Noscapine]
AC50 for growth inhibition (log10 M) [1]: -6.78 | AC50 for growth inhibition (log10 M) [2]: -6.63
